# What was measured:
# Assay in all cases: Bliss excess, mean over the matrix (fraction); higher = more synergy
# COLO-679 (Melanoma) = tested on: COLO-679 (Melanoma)
# Method in brief: (§1)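 Bliss excess equals the observed combination effect minus the expected value EA + EB − EA·EB, where EA and EB are the effects of each agent alone. Combination Emax is the second-highest inhibition within the matrix. Inhibition was scaled from CellTiter-Glo 2.0 luminescence, with 0 set by vehicle wells and 1 by blank wells, after 72 hours of two-drug dosing of cells plated in 1536-well plates.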
# [1] = tested on: Ca-Ski (Cervical Carcinoma)
# Method in brief: as §1
# [2] = tested on: DU-145 (Prostate Carcinoma)
# Method in brief: as §1
# [3] = tested on: ME-180 (Cervical Carcinoma)
# Method in brief: as §1
# [4] = tested on: ML-2 (Acute Myeloid Leukemia)
# Method in brief: as §1
# [5] = tested on: MOG-G-UVW (Low Grade Glioma)
# Method in brief: as §1
# [6] = tested on: MOLT-4 (T-Lymphoblastic Leukemia)
# Method in brief: as §1
# [7] = tested on: MV-4-11 (Acute Myeloid Leukemia)
# Method in brief: as §1
# [8] = tested on: SK-LU-1 (Lung Adenocarcinoma)
# Method in brief: as §1
# [9] = tested on: SW872 (Other Solid Carcinomas)
# Method in brief: as §1
# [10] = tested on: SW982 (Other Solid Carcinomas)
# Method in brief: as §1
# [11] = tested on: ALL-SIL (T-Lymphoblastic Leukemia)
# Method in brief: as §1
# [12] = tested on: G-401 (Other Solid Carcinomas)
# Method in brief: as §1
# [13] = tested on: HCC1937 (Breast Carcinoma)
# Method in brief: as §1
# [14] = tested on: LC-1-sq (Squamous Cell Lung Carcinoma)
# Method in brief: as §1
# [15] = tested on: NCI-H1092 (Small Cell Lung Carcinoma)
# Method in brief: as §1
# [16] = tested on: NCI-H1838 (Lung Adenocarcinoma)
# Method in brief: as §1
# [17] = tested on: NCI-H2122 (Lung Adenocarcinoma)
# Method in brief: as §1
# [18] = tested on: NCI-H650 (Lung Adenocarcinoma)
# Method in brief: as §1
# [19] = tested on: OACM5-1 (Esophageal Adenocarcinoma)
# Method in brief: as §1
SMILES,Bliss excess (COLO-679 (Melanoma)),Bliss excess [1],Bliss excess [2],Bliss excess [3],Bliss excess [4],Bliss excess [5],Bliss excess [6],Bliss excess [7],Bliss excess [8],Bliss excess [9],Bliss excess [10],Bliss excess [11],Bliss excess [12],Bliss excess [13],Bliss excess [14],Bliss excess [15],Bliss excess [16],Bliss excess [17],Bliss excess [18],Bliss excess [19]
"O=C(c1cc(Cc2n[nH]c(=O)c3ccccc23)ccc1F)N1CCN(C(=O)C2CC2)CC1 [Olaparib] + Cc1c2c(nn1C)CSCc1cc(n(C)n1)CSc1cc(c3ccccc3c1)OCCCc1c(C(=O)O)n(C)c3c-2c(Cl)ccc13 [AZD5991] (first compound max 10 µM, 7x7, partner max 1 µM)",-0.0555,-0.0275,-0.0348,-0.0363,0.0318,-0.0125,0.0336,0.0735,-0.0436,-0.0377,-0.0011,,,,,,,,,
"O=C(c1cc(Cc2n[nH]c(=O)c3ccccc23)ccc1F)N1CCN(C(=O)C2CC2)CC1 [Olaparib] + CN(CC[C@H](CSC1=CC=CC=C1)NC2=C(C=C(C=C2)S(=O)(=O)NC(=O)C3=CC=C(C=C3)N4CCC(CC4)[C@H](C5=CC=CC=C5C6=CC=C(C=C6)Cl)O)S(=O)(=O)C(F)(F)F)CCO [AZD4320] (first compound max 10 µM, 7x7, partner max 1 µM)",-0.0667,0.0083,-0.0305,-0.021,0.0877,-0.0009,0.0581,-0.0086,-0.0445,-0.0189,0.0389,,,,,,,,,
"Cc1c2c(nn1C)CSCc1cc(n(C)n1)CSc1cc(c3ccccc3c1)OCCCc1c(C(=O)O)n(C)c3c-2c(Cl)ccc13 [AZD5991] + CS(=O)(=O)CCNCc1ccc(-c2ccc3ncnc(Nc4ccc(OCc5cccc(F)c5)c(Cl)c4)c3c2)o1 [Lapatinib] (first compound max 1 µM, 7x7, partner max 10 µM)",-0.149,0.0164,-0.034,0.0624,0.0008,-0.0158,0.0254,0.0343,-0.0423,0.0129,-0.0151,,,,,,,,,
"CC1(C)CCC(CN2CCN(c3ccc(C(=O)NS(=O)(=O)c4ccc(NCC5CCOCC5)c([N+](=O)[O-])c4)c(Oc4cnc5[nH]ccc5c4)c3)CC2)=C(c2ccc(Cl)cc2)C1 [Venetoclax] + CS(=O)(=O)CCNCc1ccc(-c2ccc3ncnc(Nc4ccc(OCc5cccc(F)c5)c(Cl)c4)c3c2)o1 [Lapatinib] (first compound max 1 µM, 7x7, partner max 10 µM)",-0.0634,-0.0249,-0.0511,0.0153,0.146,-0.0012,0.0967,0.0293,-0.0772,-0.0313,-0.0456,,,,,,,,,
"C[C@@H](Nc1cc(F)cc(F)c1)c1cc(C(=O)N(C)C)cc2c(=O)cc(N3CCOCC3)oc12 [AZD8186] + CC(=O)c1c(C)c2cnc(Nc3ccc(N4CCNCC4)cn3)nc2n(C2CCCC2)c1=O [Palbociclib] (first compound max 10 µM, 7x7, partner max 10 µM)",-0.0735,-0.0285,0.0147,0.0177,0.103,0.11,0.0712,0.0769,0.0599,0.0874,0.0551,,,,,,,,,
"C[C@@H]1COCCN1c1cc(C2([S@](C)(=N)=O)CC2)nc(-c2ccnc3[nH]ccc23)n1 [AZD6738] + Nc1ccn([C@@H]2O[C@H](CO)[C@@H](O)C2(F)F)c(=O)n1 [Gemcitabine] (first compound max 10 µM, 7x7, partner max 0.3 µM)",-0.0611,0.0982,0.0742,0.0564,0.108,0.0856,0.0315,0.0067,-0.0668,0.0769,0.0352,,,,,,,,,
"C[C@@H](Nc1cc(F)cc(F)c1)c1cc(C(=O)N(C)C)cc2c(=O)cc(N3CCOCC3)oc12 [AZD8186] + C1CN(CCC1(C(=O)N[C@@H](CCO)C2=CC=C(C=C2)Cl)N)C3=NC=NC4=C3C=CN4 [AZD5363] (first compound max 10 µM, 7x7, partner max 10 µM)",-0.12,-0.0032,-0.0038,-0.0133,-0.0217,-0.0364,-0.0083,0.0103,0.02,0.0068,-0.0763,,,,,,,,,
"O=C(c1cc(Cc2n[nH]c(=O)c3ccccc23)ccc1F)N1CCN(C(=O)C2CC2)CC1 [Olaparib] + COc1nnc2ccc(N3CCC(c4ccc(OCCN5CCN(C)C(=O)[C@H]5C)cc4)CC3)nn12 [AZD5153] (first compound max 10 µM, 7x7, partner max 1 µM)",-0.0654,-0.0179,-0.0708,-0.0279,-0.0153,-0.0406,0.023,0.008,-0.0623,0.0202,-0.0614,,,,,,,,,
"Cc1c2c(nn1C)CSCc1cc(n(C)n1)CSc1cc(c3ccccc3c1)OCCCc1c(C(=O)O)n(C)c3c-2c(Cl)ccc13 [AZD5991] + Nc1ccn([C@@H]2O[C@H](CO)[C@@H](O)C2(F)F)c(=O)n1 [Gemcitabine] (first compound max 1 µM, 7x7, partner max 0.3 µM)",-0.0703,0.0354,-0.0284,-0.036,0.0116,0.0085,0.0224,0.0035,-0.0518,-0.0066,-0.0594,,,,,,,,,
"CS(=O)(=O)CCNCc1ccc(-c2ccc3ncnc(Nc4ccc(OCc5cccc(F)c5)c(Cl)c4)c3c2)o1 [Lapatinib] + Cn1cnc2c(F)c(Nc3ccc(Br)cc3Cl)c(C(=O)NOCCO)cc21 [Selumetinib] (first compound max 10 µM, 7x7, partner max 10 µM)",-0.116,-0.0185,0.0008,-0.028,-0.151,0.024,0.0852,0.0464,-0.0145,0.0006,0.034,,,,,,,,,
"C=CCn1c(=O)c2cnc(Nc3ccc(N4CCN(C)CC4)cc3)nc2n1-c1cccc(C(C)(C)O)n1 [AZD1775] + Nc1ccn([C@@H]2O[C@H](CO)[C@@H](O)C2(F)F)c(=O)n1 [Gemcitabine] (first compound max 1 µM, partner max 0.3 µM)",-0.067,0.0644,-0.0385,0.0154,0.0482,0.0183,0.0162,0.0238,-0.0837,0.0462,-0.0248,,,,,,,,,
"O=C(c1cc(Cc2n[nH]c(=O)c3ccccc23)ccc1F)N1CCN(C(=O)C2CC2)CC1 [Olaparib] + CC1(C)CCC(CN2CCN(c3ccc(C(=O)NS(=O)(=O)c4ccc(NCC5CCOCC5)c([N+](=O)[O-])c4)c(Oc4cnc5[nH]ccc5c4)c3)CC2)=C(c2ccc(Cl)cc2)C1 [Venetoclax] (first compound max 10 µM, 7x7, partner max 1 µM)",-0.0643,-0.0069,-0.0254,-0.0274,0.115,0.001,0.124,0.0475,-0.0404,-0.023,-0.0429,,,,,,,,,
"COc1cccc(OCCCN)c1-c1cc(Nc2cnc(C#N)cn2)n[nH]1 [Prexasertib] + CCc1c2c(nc3ccc(O)cc13)-c1cc3c(c(=O)n1C2)COC(=O)[C@]3(O)CC [SN-38] (first compound max 1 µM, 7x7, partner max 0.3 µM)",-0.111,0,-0.0423,0.0232,-0.007,0.0045,-0.0075,-0.0107,,-0.015,-0.0952,-0.0093,-0.0398,-0.011,0.0039,0.0354,-0.0001,-0.0405,-0.0227,-0.0675
"COc1cccc(OCCCN)c1-c1cc(Nc2cnc(C#N)cn2)n[nH]1 [Prexasertib] + O=C(c1cc(Cc2n[nH]c(=O)c3ccccc23)ccc1F)N1CCN(C(=O)C2CC2)CC1 [Olaparib] (first compound max 1 µM, 7x7, partner max 10 µM)",-0.0407,-0.0243,-0.0144,-0.0511,-0.0006,-0.0035,0.0154,-0.0247,,-0.018,-0.103,-0.0222,-0.166,-0.103,-0.0468,-0.0514,-0.153,-0.0471,-0.0442,-0.054
"COc1cccc(OCCCN)c1-c1cc(Nc2cnc(C#N)cn2)n[nH]1 [Prexasertib] + C[C@@H]1COCCN1C2=NC(=NC(=C2)C3(CC3)[S@](=N)(=O)C)C4=C5C=CNC5=NC=C4 [AZD6738] (first compound max 1 µM, 7x7, partner max 10 µM)",-0.0836,-0.0134,-0.0844,0.0255,-0.0361,0.0317,0.0087,-0.0356,,0.01,-0.0406,-0.0175,0.0399,-0.0129,-0.0361,-0.0568,-0.174,-0.0262,-0.0278,-0.0153
"COc1cccc(OCCCN)c1-c1cc(Nc2cnc(C#N)cn2)n[nH]1 [Prexasertib] + Cc1cc2ncnn2cc1Nc1ncc2c(n1)n(C1CCOCC1)c(=O)n2C [AZD7648] (first compound max 1 µM, 7x7, partner max 10 µM)",-0.0157,-0.0159,-0.0381,0.0041,-0.0357,-0.0264,0.0091,-0.0083,,0.0191,-0.0355,-0.0258,-0.0221,-0.0594,0.0099,-0.0287,-0.0126,-0.0289,-0.0389,-0.026
"COc1cccc2c1C(=O)c1c(O)c3c(c(O)c1C2=O)C[C@@](O)(C(=O)CO)C[C@@H]3O[C@H]1C[C@H](N)[C@H](O)[C@H](C)O1 [Doxorubicin] + Cc1cc2ncnn2cc1Nc1ncc2c(n1)n(C1CCOCC1)c(=O)n2C [AZD7648] (first compound max 1 µM, 7x7, partner max 10 µM)",0.0178,0.0498,0.0052,0.0438,0.0281,0.101,0.135,0.137,,0.0299,0.0226,0.0857,0.0259,0.005,0.117,-0.0037,-0.0577,0.0669,0.0195,0.0577
